From patent US20140357512A1, “HISTONE DEACETYLASE (HDAC) BIOMARKERS IN MULTIPLE MYELOMA” (priority 2013, published 2014)

Tested on: human myeloma cell line MM.1S
Experiment: SILAC acetylated-lysine peptide profiling, HDAC inhibitor vs DMSO (light/heavy ratio)
Type: cell-based
From the text: An embodiment of the invention comprises utilizing the SILAC method in order to quantitate changes in protein expression between two or more populations of cells. The SILAC method is a technique based on mass spectrometry that detects differences in protein abundance among samples using non-radioactive isotopic labeling. The SILAC method is known in the art, and described in detail in Ong et al., “Stable Isotope Labeling by Amino Acids in Cell Culture, SILAC, as a Simple and Accurate Approach to Expression Proteomics”, Molecular & Cellular Proteomics, vol. 1, pp. 376-386 (2002), which is incorporated herein by reference in its entirety.
Briefly, the SILAC method involves growing two populations of cells in cell culture. The first population of cells is grown in growth media containing normal amino acids (“normal media”). The second population of cells is grown in media lacking a standard essential amino acid (such as lysine), but is then supplemented with a non-radioactive, isotopically labeled form of that essential amino acid (such as lysine labeled with ^13C atoms, rather than normal ^12C atoms), which is called “heavy media”. When the two populations of cells are each growing in the medium, they incorporate the amino acids into all of their proteins. The growth of cells maintained in the heavy media is no different from that in normal media. All peptides containing the heavy amino acids are heavier than their normal counterparts. The cells from each of the two populations of cells are lysed. The lysates from each of the two cell populations are then combined. The combined cell lysates are then analyzed by mass spectrometry. Pairs of chemically identical peptides of different stable isotope composition can be differentiated in a mass spectrometer due to their difference in mass. The ratio of peak intensities in the mass spectrum for such peptide pairs reflects the abundance ratio for the two proteins.
This example describes SILAC studies that were performed to compare the effects of three different HDAC inhibitors (Compound A, Compound B, and tubastatin A) to a control on a human multiple myeloma cell line. The HDAC inhibitors were also compared amongst themselves to determine differences in their effects.
A human myeloma cell line MM.1S was grown using either ^12C (light) or ^13C (heavy) lysine containing culture medium. The “heavy” cells were treated with DMSO as the control, and the “light” cells were treated with a single HDAC inhibitor at 37° C. for 6 hours. The heavy and light cells were lysed, and the lysates were mixed in 1:1 ratio and digested with the protease trypsin. The acetylated lysine containing peptides (due to the action of the HDAC inhibitor) in the digested peptide pool were captured by a non-specific anti-acetylated lysine antibody cocktail (the antibodies identify both light and heavy acetylated peptides), and subjected to mass spectrometry analysis in order to identify thousands of individual peptides.
Thousands of peptides were identified in pairs (^12C and ^13C) due to their known mass differences. The amino acid sequence and quantitative ratio (Light/Heavy) of a given peptide in two differentially treated cell lysates were then determined and annotated with their possible protein (gene) sources.
As stated above, three HDAC inhibitors (Compound A, Compound B, and Tubastatin A) were used. Thus, the SILAC method was performed three times, with a different HDAC inhibitor compared to a control each time. Accordingly, there are three pairs of quantitative data in the table below, i.e., Compound A:DMSO, Compound B:DMSO, and Tubastatin A:DMSO. A cut-off of 1.30 fold of change (increase or decrease) was then used to determine “changed” or “+” in the table, and any peptides with a fold of change less than 1.3 fold were determined to be “unchanged” or “0” in the table. Those peptides that were not identified were marked as “NA” in the table. […]

Question: Which “light to heavy ratio (L/H ratio) of acetylated peptide FVVEK(ac)AEQQK (SEQ ID NO: 263)” value (Prohibitin [202], PHB, drug:DMSO) does the source give for `O=C(CCCCCCNC(=O)c1cnc(N(c2ccccc2)c2ccccc2)nc1)NO` [Compound A, 2-(diphenylamino)-N-(7-(hydroxyamino)-7-oxoheptyl)pyrimidine-5-carboxamide] here?
Answer: 0.42 log 2

Question: What about the “light to heavy ratio (L/H ratio) of acetylated peptide VYVLK(ac)FK (SEQ ID NO: 520)” value (Proteasomal ubiquitin receptor ADRM1 [97], gene ADRM1, inhibitor:DMSO) of the same molecule?
Answer: −0.50 log 2

Question: What about the “light to heavy ratio (L/H ratio) of acetylated peptide FEYK(ac)YSFK (SEQ ID NO: 340)” value (Protein ERGIC-53 [49], LMAN1, drug:DMSO) of the same molecule?
Answer: 0.00 log 2

Question: What about the “light to heavy ratio (L/H ratio) of acetylated peptide HFAFK(ac)[…] (SEQ ID NO: 554)” value (Protein FAM3C [72], gene FAM3C, inhibitor:DMSO) of the same molecule?
Answer: 0.40 log 2

Question: What about the “light to heavy ratio (L/H ratio), log 2 scale, acetylated peptide […](ac)PTK (SEQ ID NO: 804)” value (Protein Jade-3 [735], gene PHF16, drug:DMSO) of the same molecule?
Answer: 1.00

Question: What about the “light to heavy ratio (L/H ratio), log 2 scale, acetylated peptide IANILK(ac)[…] (SEQ ID NO: 803)” value (Protein disulfide-isomerase A4 [109], gene PDIA4, drug:DMSO) of the same molecule?
Answer: 1.00

Question: And the “light to heavy ratio (L/H ratio) of acetylated peptide GYPTIK(ac)FFR (SEQ ID NO: 541)” value (Protein disulfide-isomerase [103], gene P4HB, inhibitor:DMSO)?
Answer: 0.39 log 2

Question: What about the “light to heavy ratio (L/H ratio) of acetylated peptide THILLFLPK(ac)SVSDYDGK (SEQ ID NO: 297)” value (Protein disulfide-isomerase [263], P4HB, drug:DMSO) of the same molecule?
Answer: 0.75 log 2

Question: What about the “light to heavy ratio (L/H ratio) of acetylated peptide VLVGK(ac)[…] (SEQ ID NO: 303)” value (Protein disulfide-isomerase [375], P4HB, drug:DMSO) of the same molecule?
Answer: 0.99 log 2

Question: What about the “light to heavy ratio (L/H ratio) of acetylated peptide […](ac)K (SEQ ID NO: 286)” value (Protein disulfide-isomerase [385], P4HB, drug:DMSO) of the same molecule?
Answer: 0.62 log 2

Question: And the “light to heavy ratio (L/H ratio), log 2 scale, acetylated peptide VYK(ac)EMYK (SEQ ID NO: 777)” value (Putative annexin A2-like protein [148], gene ANXA2P2, drug:DMSO)?
Answer: 1.00

Question: And the “light to heavy ratio (L/H ratio), log 2 scale, acetylated peptide SVPHLQK(ac)VFDR (SEQ ID NO: 776)” value (Putative annexin A2-like protein [227], gene ANXA2P2, drug:DMSO)?
Answer: 1.00

Question: What about the “light to heavy ratio (L/H ratio) of acetylated peptide SEVDMLK(ac)IR (SEQ ID NO: 295)” value (Putative annexin A2-like protein [302], ANXA2P2, drug:DMSO) of the same molecule?
Answer: 0.71 log 2

Question: And the “light to heavy ratio (L/H ratio) of acetylated peptide RMELK(ac)ADQLYK (SEQ ID NO: 275)” value (Pyruvate dehydrogenase E1 component subunit alpha testis-specific form mitochondrial [75], PDHA2, drug:DMSO)?
Answer: 0.51 log 2

Question: What about the “L/H ratio of acetylated peptide EIDSVK(ac)[…] (SEQ ID NO: 73)” value (RAC2 [153], log 2 scale, drug vs DMSO) of the same molecule?
Answer: 0.00

Question: What about the “L/H ratio of acetylated peptide (ac)ADK(ac)[…] (SEQ ID NO: 74)” value (RBBP4 [4], log 2 scale, drug vs DMSO) of the same molecule?
Answer: 0.00

Question: And the “L/H ratio of acetylated peptide ACFYNLDK(ac)FR (SEQ ID NO: 75)” value (RBM17 [391], log 2 scale, drug vs DMSO)?
Answer: 0.00

Question: What about the “L/H ratio of acetylated peptide […](ac)SIPTLISR (SEQ ID NO: 76)” value (RCC1 [366], log 2 scale, drug vs DMSO) of the same molecule?
Answer: 0.00

Question: And the “L/H ratio of acetylated peptide FIDTTSK(ac)FGHGR (SEQ ID NO: 83)” value (RPL3L [373], log 2 scale, drug vs DMSO)?
Answer: 0.00

Question: And the “L/H ratio of acetylated peptide LNILK(ac)LAPGGHVGR (SEQ ID NO: 85)” value (RPL4 [239], log 2 scale, drug vs DMSO)?
Answer: 0.00

Question: And the “L/H ratio of acetylated peptide AASLK(ac)SNYNLPMHK (SEQ ID NO: 84)” value (RPL4 [274], log 2 scale, drug vs DMSO)?
Answer: 0.00

Question: What about the “L/H ratio of acetylated peptide NFLGEK(ac)YIR (SEQ ID NO: 86)” value (RPL9 [121], log 2 scale, drug vs DMSO) of the same molecule?
Answer: 0.00

Question: What about the “L/H ratio of acetylated peptide TGCIGAK(ac)HR (SEQ ID NO: 77)” value (RPL11 [154], log 2 scale, drug vs DMSO) of the same molecule?
Answer: 0.00

Question: And the “L/H ratio of acetylated peptide WFQQK(ac)YDGIILPGK (SEQ ID NO: 78)” value (RPL11 [169], log 2 scale, drug vs DMSO)?
Answer: 0.00

Question: What about the “L/H ratio of acetylated peptide […](ac)SR (SEQ ID NO: 79)” value (RPL18A [41], log 2 scale, drug vs DMSO) of the same molecule?
Answer: 0.00

Question: And the “L/H ratio of acetylated peptide IEHIK(ac)HSK (SEQ ID NO: 80)” value (RPL21, SNORD102, SNORA27, RPL21P19 [97], log 2 scale, drug vs DMSO)?
Answer: 0.00

Question: And the “L/H ratio of acetylated peptide YLK(ac)YLTK (SEQ ID NO: 81)” value (RPL22 [84], log 2 scale, drug vs DMSO)?
Answer: 0.00

Question: What about the “L/H ratio of acetylated peptide INFDK(ac)YHPGYFGK (SEQ ID NO: 82)” value (RPL27A [47], log 2 scale, drug vs DMSO) of the same molecule?
Answer: 0.00

Question: And the “L/H ratio of acetylated peptide” value (RPPQTIK(ac)SVR (SEQ ID NO: 492), GDP-D-glucose phosphorylase C15orf58 [113], C15orf58)?
Answer: −1.00 log 2

Question: What about the “L/H ratio of acetylated peptide LK(ac)[…] (SEQ ID NO: 89)” value (RPS4X [53], log 2 scale, drug vs DMSO) of the same molecule?
Answer: 0.00

Question: What about the “L/H ratio of acetylated peptide SFQK(ac)IQVR (SEQ ID NO: 90)” value (RPS7 [74], log 2 scale, drug vs DMSO) of the same molecule?
Answer: 0.00

Question: And the “L/H ratio of acetylated peptide ELLTLDEK(ac)DPR (SEQ ID NO: 91)” value (RPS9 [66], log 2 scale, drug vs DMSO)?
Answer: 0.00

Question: What about the “L/H ratio of acetylated peptide LQTQVFK(ac)LGLAK (SEQ ID NO: 92)” value (RPS9 [116], log 2 scale, drug vs DMSO) of the same molecule?
Answer: 0.00

Question: And the “L/H ratio of acetylated peptide […](ac)GK (SEQ ID NO: 87)” value (RPS23 [135], log 2 scale, drug vs DMSO)?
Answer: 0.00

Question: What about the “L/H ratio of acetylated peptide LAVLK(ac)YYK (SEQ ID NO: 88)” value (RPS27A [104], log 2 scale, drug vs DMSO) of the same molecule?
Answer: 0.00

Question: What about the “light to heavy ratio (L/H ratio) of acetylated peptide LLNK(ac)HGIK (SEQ ID NO: 528)” value (Ribosomal L1 domain-containing protein 1 [120], gene RSL1D1, inhibitor:DMSO) of the same molecule?
Answer: −0.43 log 2
